Data set [1] relates to enteroid fragments (primary intestinal epithelial cells). Description: Epithelial cell recovery and on-chip seeding of enteroid fragments generated with or without ROCK inhibitor. It counts as cell-based, human. The settings on record: ROCK inhibitor present during fragment isolation and seeding, images 24 h post seeding (FIG. 15). How it is done: Representative images showing device seeded with enteroid fragments generated in the absence (−ROCK inhibitor) or presence (+ROCK inhibitor) were acquired 24 h post seeding. Equal cell seeding density and time was used for both of the conditions tested.
Prior to the establishment of primary cell culture in organ-on-chip microfluidic device, the hydrophobic PDMS surface is activated by oxygen plasma treatment and aminized with (3-aminopropyl)[…] silane (APTMS, SIGMA 281778). This surface functionalization allows for an improved cell attachment and facilitates long-term culture of intestinal stem cells and their progeny. Next ECM coating solution composed of 1% Matrigel (BD Corning, 356231) and 200 ug/ml Collagen I (BD Corning 3.36 mg/mL; 354226) is introduced in both the upper and the lower microfluidic channel and device is placed in a humidified 37° C. incubator for the minimum of 2 hours. Then human intestinal microvascular endothelial cells, e.g., purchased from ScienCell (Catalog #2900), are seeded on the bottom side of the porous stretchable PDMS membrane that separates two parallel microchannels of the organ-on-chip device. […]

Data set [2] deals with small intestine-on-chip (primary human intestinal epithelium with or without HIMEC endothelium). The source says:
As used herein, “differentially permeable”, e.g., in reference to an intestinal barrier, refers to the intestinal barrier displaying a resistance to the passage of certain molecules as compared to monolayers of, e.g., endothelial cells or undifferentiated intestinal epithelial cells. […] Such assays are described in the Examples herein in detail. Briefly, the apical side of the intestinal barrier is contacted with one or more tracer molecules and the concentration of the tracer later found on the basal side of the intestinal barrier.
• PROCEDURE. […]
Intestinal functional assessment and cytokine measurements. […] The concentration of dye that diffused through the membrane into endothelial channel was measured in the effluent, and apparent paracellular permeability (Papp) was calculated using the following formula:
[formula] where Vrec is volume receiver (endothelial compartment), Crec concentration receiver, A the seeded area and Cdon concentration donor (epithelial compartment). Cytokines released in the medium were quantified using U-PLEX Biomarker Assays for human Fractalkine, GM-CSF, IFN-γ, IL-1α, IL-1β, IL-6, IL-8, and IL-10 (Mesoscale Discovery).

Turning to `C[C@@H](N)[C@H]1CC[C@H](C(=O)Nc2ccncc2)CC1` [ROCK inhibitor, Y-27632], in data set [1], the “epithelial cell recovery and on-chip seeding” value was “Improved epithelial cells recovery and on-chip seeding”.
Turning to Lucifer Yellow, in data set [2], the Optimal Papp (apparent permeability) for small intestine-on-chip is approximately 1 ×10⁻⁶ cm/s and the Papp is recorded as 1-2×10^−6.

These data come from US12247227B2, “Methods relating to intestinal organ-on-a-chip” (PRESIDENT AND FELLOWS OF HARVARD COLLEGE, priority 2016, dated 2025).
